From ChEMBL document CHEMBL1133825, “3-D-QSAR/CoMFA and recognition models of benzimidazole derivatives at the 5-HT(4) receptor” (Bioorg Med Chem Lett, 2001)

Columns and labels:
[1] = molecular target: T1, 5-hydroxytryptamine receptor 4 (Rattus norvegicus, UniProt Q62758); assay: In vitro binding affinity to 5-hydroxytryptamine 4 receptor in rat striatum membrane; type: cell membranes
[2] = molecular target: T1, 5-hydroxytryptamine receptor 4; assay: pKi against 5-hydroxytryptamine 4 receptor in rat striatum membrane; type: cell membranes

T1 sequence (Q62758 whole entry): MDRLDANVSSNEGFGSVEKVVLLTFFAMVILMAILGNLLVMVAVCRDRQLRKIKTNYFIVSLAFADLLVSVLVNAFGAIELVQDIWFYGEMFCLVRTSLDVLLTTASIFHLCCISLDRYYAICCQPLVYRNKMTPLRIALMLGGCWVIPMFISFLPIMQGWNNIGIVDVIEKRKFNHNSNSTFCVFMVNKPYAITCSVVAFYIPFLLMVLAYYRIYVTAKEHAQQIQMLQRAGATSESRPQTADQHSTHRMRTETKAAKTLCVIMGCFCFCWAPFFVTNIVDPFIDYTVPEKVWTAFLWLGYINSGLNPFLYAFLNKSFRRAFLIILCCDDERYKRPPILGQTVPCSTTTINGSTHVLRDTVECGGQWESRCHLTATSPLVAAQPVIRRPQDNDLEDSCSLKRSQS

Ki [1] [nM]	Ki [2] [nM]	Compound
2.9	2.88	CCCCN1CCC(COC(=O)c2cc(Cl)cc3[nH]cnc23)CC1
27.8	27.5	CCCCN1CCC(CNC(=O)c2cc(Br)c(N)c3nc[nH]c23)CC1
48.2	47.9	CCCCN1CCC(CNC(=O)c2cc(Br)c([N+](=O)[O-])c3[nH]cnc23)CC1
> 1000	> 1000	CCN1CCC(NC(=O)c2cccc3[nH]cnc23)CC1
> 1000	> 1000	CCCN1CCC(NC(=O)c2cccc3nc[nH]c23)CC1
290	288	CCCCN1CCC(NC(=O)c2cccc3nc[nH]c23)CC1
2.2	2.19	CC(C)CN1CCC(CNC(=O)c2cc(Cl)cc3c2ncn3C)CC1
0.54	0.537	CCCCCN1CCC(CNC(=O)c2cc(Cl)cc3[nH]cnc23)CC1
44.6	44.7	CCCCN1CCC(CNC(=O)c2cc(Cl)c([N+](=O)[O-])c3nc[nH]c23)CC1
13.7	13.8	CCCCN1CCC(CNC(=O)c2cccc3[nH]cnc23)CC1

More lines, now with the values behind:

Compound	Ki [1] [nM]	Ki [2] [nM]
CC(C)CN1CCC(CNC(=O)c2cc(Cl)cc3[nH]cnc23)CC1	0.29	0.288
CN1CCC(OC(=O)c2cccc3nc[nH]c23)CC1	> 10000	> 10000
CC(C)CN1CCC(CNC(=O)c2cc(Cl)cc3c2ncn3Cc2ccccc2)CC1	69.2	69.2
CS(=O)(=O)NCCN1CCC(CNC(=O)c2cccc3[nH]cnc23)CC1	11.4	11.5
CS(=O)(=O)NCCN1CCC(CNC(=O)c2cc(Cl)cc3[nH]cnc23)CC1	0.11	0.11
CS(=O)(=O)NCCN1CCC(COC(=O)c2cccc3nc[nH]c23)CC1	26.1	26.3
CCCCN1CCC(COC(=O)c2cccc3nc[nH]c23)CC1	24.6	24.5
CS(=O)(=O)NCCN1CCC(COC(=O)c2cc(Cl)cc3[nH]cnc23)CC1	2.3	2.29
CCCCN1CCC(CNC(=O)c2cc(Cl)cc3[nH]cnc23)CC1	0.32	0.324
CCCCN1CCC(CNC(=O)c2cc(Br)cc3[nH]cnc23)CC1	0.64	0.646
CCCCN1CCC(CNC(=O)c2ccc(N)c3[nH]cnc23)CC1	115	115
CCCCN1CCC(CNC(=O)c2cc(Cl)c(N)c3[nH]cnc23)CC1	22.4	22.4
